Results on 23 compounds are retold here after US20250144094A1 (Erasca, Inc., priority 2021, published 2025).

Bounds are passed on as bounds.

The IC50 is the midpoint of a concentration-inhibition curve.

Chain of Recombinant human ULK1 (1-649) (O75385 1-649): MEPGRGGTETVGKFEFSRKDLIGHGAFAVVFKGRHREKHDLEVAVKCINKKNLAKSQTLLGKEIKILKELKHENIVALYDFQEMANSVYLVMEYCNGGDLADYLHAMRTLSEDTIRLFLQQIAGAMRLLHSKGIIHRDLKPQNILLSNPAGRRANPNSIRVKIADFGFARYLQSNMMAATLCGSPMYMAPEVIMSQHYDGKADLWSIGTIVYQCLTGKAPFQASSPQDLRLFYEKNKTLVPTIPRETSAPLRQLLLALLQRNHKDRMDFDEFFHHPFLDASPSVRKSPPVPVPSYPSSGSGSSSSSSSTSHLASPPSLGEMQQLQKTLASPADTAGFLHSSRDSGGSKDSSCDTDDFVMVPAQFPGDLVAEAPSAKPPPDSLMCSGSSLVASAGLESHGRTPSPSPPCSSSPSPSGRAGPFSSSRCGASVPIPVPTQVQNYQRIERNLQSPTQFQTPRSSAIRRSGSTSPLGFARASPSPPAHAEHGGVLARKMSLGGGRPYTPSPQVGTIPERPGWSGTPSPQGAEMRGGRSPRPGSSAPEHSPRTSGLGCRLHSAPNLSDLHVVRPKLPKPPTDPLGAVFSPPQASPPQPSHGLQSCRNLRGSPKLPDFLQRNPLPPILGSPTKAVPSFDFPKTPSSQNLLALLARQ

The target in the assay is Recombinant human ULK1 (1-649) (Homo sapiens (Human), UniProt O75385). Briefly: ULK1 ADP Glo kinase activity assay, new method (ULKtide peptide substrate). Conditions: 25° C., 40 minutes, read-out: ULK1 biochemical IC50. The procedure, abridged:
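Kinase activity was read as ADP production (ADP-Glo, luminescence 30 min after detection reagent) following a 40-min, 25 °C reaction of Sf9-expressed GST-ULK1 (1-649) with ULKtide substrate and ATP. Compounds ran as 12-point series starting at 10 μM; four-parameter curve fitting versus DMSO wells gave IC50.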
(ADP-Glo turns the ADP formed in a reaction into a luminescent signal.)
With `CN1CCS(=O)(=O)c2cc(-c3nc(Nc4ccc(N5CCN(CC6COC6)CC5)cc4Cl)ncc3C(F)(F)F)sc2C1=O` [Example 217, 7-(2-((2-chloro-4-(4-(oxetan-3-ylmethyl)piperazin-1-yl)phenyl)amino)-5-(trifluoromethyl)pyrimidin-4-yl)-4-methyl-3,4-dihydrothieno[2,3-f][1,4]thiazepin-5(2H)-one 1,1-dioxide], the 50% inhibitory concentration (IC50) was at most 5 nM.

As to `O=C1c2sc(-c3nc(Nc4cc5c(cc4C4CC4)CNCC5)ncc3C(F)(F)F)cc2S(=O)(=O)CCN1C1CCC1` [Example 218, 4-cyclobutyl-7-(2-((7-cyclopropyl-1,2,3,4-tetrahydroisoquinolin-6-yl)amino)-5-(trifluoromethyl)pyrimidin-4-yl)-3,4-dihydrothieno[2,3-f][1,4]thiazepin-5(2H)-one 1,1-dioxide], the IC50 was at most 5 nM.

On to `O=C1c2sc(-c3nc(Nc4cc5c(cc4C4CC4)CNCC5)ncc3C(F)(F)F)cc2S(=O)(=O)CCN1C1COC1` [Example 219, 7-(2-((7-cyclopropyl-1,2,3,4-tetrahydroisoquinolin-6-yl)amino)-5-(trifluoromethyl)pyrimidin-4-yl)-4-(oxetan-3-yl)-3,4-dihydrothieno[2,3-f][1,4]thiazepin-5(2H)-one 1,1-dioxide], for which the concentration for half-maximal inhibition (IC50) was at most 5 nM. Regarding `CCc1cc2c(cc1Nc1ncc(C(F)(F)F)c(-c3cc4c(s3)C(=O)N(C3CC3)CCS4(=O)=O)n1)CNCC2` [Example 220, 4-cyclopropyl-7-(2-((6-ethyl-1,2,3,4-tetrahydroisoquinolin-7-yl)amino)-5-(trifluoromethyl)pyrimidin-4-yl)-3,4-dihydrothieno[2,3-f][1,4]thiazepin-5(2H)-one 1,1-dioxide], the IC50 is at most 5 nM. For `CCc1cc2c(cc1Nc1ncc(C(F)(F)F)c(-c3cc4c(s3)C(=O)N(C3CCC3)CCS4(=O)=O)n1)CNCC2` [Example 221, 4-cyclobutyl-7-(2-((6-ethyl-1,2,3,4-tetrahydroisoquinolin-7-yl)amino)-5-(trifluoromethyl)pyrimidin-4-yl)-3,4-dihydrothieno[2,3-f][1,4]thiazepin-5(2H)-one 1,1-dioxide] the value was at most 5 nM; for `CCc1cc2c(cc1Nc1ncc(C(F)(F)F)c(-c3cc4c(s3)C(=O)N(C)CCS4(=O)=O)n1)CCN(CC)C2` [Example 222, 7-(2-((2,7-diethyl-1,2,3,4-tetrahydroisoquinolin-6-yl)amino)-5-(trifluoromethyl)pyrimidin-4-yl)-4-methyl-3,4-dihydrothieno[2,3-f][1,4]thiazepin-5(2H)-one 1,1-dioxide], at most 5 nM. The value for `CCc1cc2c(cc1Nc1ncc(C(F)(F)F)c(-c3cc4c(s3)C(=O)N(C)CCS4(=O)=O)n1)CCN(CC1CC1)C2` [Example 223, 7-(2-((2-(cyclopropylmethyl)-7-ethyl-1,2,3,4-tetrahydroisoquinolin-6-yl)amino)-5-(trifluoromethyl)pyrimidin-4-yl)-4-methyl-3,4-dihydrothieno[2,3-f][1,4]thiazepin-5(2H)-one 1,1-dioxide] was at most 5 nM; that for `O=C1c2sc(-c3nc(Nc4cc5c(cc4C4CC4)CCNC5)ncc3C(F)(F)F)cc2S(=O)(=O)CCN1C1CC1` [Example 224, 4-cyclopropyl-7-(2-((6-cyclopropyl-1,2,3,4-tetrahydroisoquinolin-7-yl)amino)-5-(trifluoromethyl)pyrimidin-4-yl)-3,4-dihydrothieno[2,3-f][1,4]thiazepin-5(2H)-one 1,1-dioxide] was at most 5 nM. For `O=C1c2sc(-c3nc(Nc4cc5c(cc4C4CC4)CCNC5)ncc3C(F)(F)F)cc2S(=O)(=O)CCN1C1CCC1` [Example 225, 4-cyclobutyl-7-(2-((6-cyclopropyl-1,2,3,4-tetrahydroisoquinolin-7-yl)amino)-5-(trifluoromethyl)pyrimidin-4-yl)-3,4-dihydrothieno[2,3-f][1,4]thiazepin-5(2H)-one 1,1-dioxide] the value was at most 5 nM; for `O=C1c2sc(-c3nc(Nc4cc5c(cc4Cl)CN(CCF)CC5)ncc3C(F)(F)F)cc2S(=O)(=O)CCN1C1CC1` [Example 227, 7-(2-((7-chloro-2-(2-fluoroethyl)-1,2,3,4-tetrahydroisoquinolin-6-yl)amino)-5-(trifluoromethyl)pyrimidin-4-yl)-4-cyclopropyl-3,4-dihydrothieno[2,3-f][1,4]thiazepin-5(2H)-one 1,1-dioxide], at most 5 nM. Regarding `CCc1cc2c(cc1Nc1ncc(C(F)(F)F)c(-c3cc4c(s3)C(=O)N(C3CC3)CCS4(=O)=O)n1)CCN(CC)C2` [Example 228, 4-cyclopropyl-7-(2-((2,7-diethyl-1,2,3,4-tetrahydroisoquinolin-6-yl)amino)-5-(trifluoromethyl)pyrimidin-4-yl)-3,4-dihydrothieno[2,3-f][1,4]thiazepin-5(2H)-one 1,1-dioxide], the concentration for half-maximal inhibition (IC50) was at most 5 nM. The value for `O=C1c2sc(-c3nc(Nc4cc5c(cc4Cl)CCNC5)ncc3C(F)(F)F)cc2S(=O)(=O)CCN1C1COC1` [Example 230, 7-(2-((6-chloro-1,2,3,4-tetrahydroisoquinolin-7-yl)amino)-5-(trifluoromethyl)pyrimidin-4-yl)-4-(oxetan-3-yl)-3,4-dihydrothieno[2,3-f][1,4]thiazepin-5(2H)-one 1,1-dioxide] was at most 5 nM; that for `CN1CCS(=O)(=O)c2cc(-c3nc(Nc4cc5c(cc4C4CC4)CCNC5)ncc3C(F)(F)F)sc2C1=O` [Example 231, 7-(2-((6-cyclopropyl-1,2,3,4-tetrahydroisoquinolin-7-yl)amino)-5-(trifluoromethyl)pyrimidin-4-yl)-4-methyl-3,4-dihydrothieno[2,3-f][1,4]thiazepin-5(2H)-one 1,1-dioxide] was at most 5 nM. With `O=C1c2sc(-c3nc(Nc4cc5c(cc4C4CC4)CCNC5)ncc3C(F)(F)F)cc2S(=O)(=O)CCN1CC(F)(F)F` [Example 232, 7-(2-((6-cyclopropyl-1,2,3,4-tetrahydroisoquinolin-7-yl)amino)-5-(trifluoromethyl)pyrimidin-4-yl)-4-(2,2,2-trifluoroethyl)-3,4-dihydrothieno[2,3-f][1,4]thiazepin-5(2H)-one 1,1-dioxide], the IC50 was at most 5 nM. For the compound `CCN1CCc2cc(Nc3ncc(C(F)(F)F)c(-c4cc5c(s4)C(=O)N(C4CC4)CCS5(=O)=O)n3)c(C3CC3)cc2C1` [Example 233, 4-cyclopropyl-7-(2-((7-cyclopropyl-2-ethyl-1,2,3,4-tetrahydroisoquinolin-6-yl)amino)-5-(trifluoromethyl)pyrimidin-4-yl)-3,4-dihydrothieno[2,3-f][1,4]thiazepin-5(2H)-one 1,1-dioxide], the IC50 was at most 5 nM.

As for `O=C1c2sc(-c3nc(Nc4cc5c(cc4C4CC4)CN(CC4COC4)CC5)ncc3C(F)(F)F)cc2S(=O)(=O)CCN1C1CC1` [Example 234, 4-cyclopropyl-7-(2-((7-cyclopropyl-2-(oxetan-3-ylmethyl)-1,2,3,4-tetrahydroisoquinolin-6-yl)amino)-5-(trifluoromethyl)pyrimidin-4-yl)-3,4-dihydrothieno[2,3-f][1,4]thiazepin-5(2H)-one 1,1-dioxide], the IC50 is at most 5 nM. For `O=C1c2sc(-c3nc(Nc4cc5c(cc4C4CC4)CN(CC4CC4)CC5)ncc3C(F)(F)F)cc2S(=O)(=O)CCN1C1CC1` [Example 235, 4-cyclopropyl-7-(2-((7-cyclopropyl-2-(cyclopropylmethyl)-1,2,3,4-tetrahydroisoquinolin-6-yl)amino)-5-(trifluoromethyl)pyrimidin-4-yl)-3,4-dihydrothieno[2,3-f][1,4]thiazepin-5(2H)-one 1,1-dioxide] the value was at most 5 nM. For `CN1CCS(=O)(=O)c2cc(-c3nc(Nc4cc5c(cc4C4CC4)CN(CCF)CC5)ncc3C(F)(F)F)sc2C1=O` [Example 236, 7-(2-((7-cyclopropyl-2-(2-fluoroethyl)-1,2,3,4-tetrahydroisoquinolin-6-yl)amino)-5-(trifluoromethyl)pyrimidin-4-yl)-4-methyl-3,4-dihydrothieno[2,3-f][1,4]thiazepin-5(2H)-one 1,1-dioxide] the value was at most 5 nM; for `CN1CCS(=O)(=O)c2cc(-c3nc(Nc4cc5c(cc4Cl)CN(CCF)CC5)ncc3C(F)(F)F)sc2C1=O` [Example 237, 7-(2-((7-chloro-2-(2-fluoroethyl)-1,2,3,4-tetrahydroisoquinolin-6-yl)amino)-5-(trifluoromethyl)pyrimidin-4-yl)-4-methyl-3,4-dihydrothieno[2,3-f][1,4]thiazepin-5(2H)-one 1,1-dioxide], at most 5 nM. Regarding `CN1CCS(=O)(=O)c2cc(-c3nc(Nc4ccc(N5CCNCC5)cc4C4CC4)ncc3C(F)(F)F)sc2C1=O` [Example 238, 7-(2-((2-cyclopropyl-4-(piperazin-1-yl)phenyl)amino)-5-(trifluoromethyl)pyrimidin-4-yl)-4-methyl-3,4-dihydrothieno[2,3-f][1,4]thiazepin-5(2H)-one 1,1-dioxide], the IC50 lay in the range of 5 to 10 nM. As for `O=C1c2sc(-c3nc(Nc4ccc(N5CCNCC5)cc4C4CC4)ncc3C(F)(F)F)cc2S(=O)(=O)CCN1C1CC1` [Example 239, 4-cyclopropyl-7-(2-((2-cyclopropyl-4-(piperazin-1-yl)phenyl)amino)-5-(trifluoromethyl)pyrimidin-4-yl)-3,4-dihydrothieno[2,3-f][1,4]thiazepin-5(2H)-one 1,1-dioxide], the 50% inhibitory concentration (IC50) is at most 5 nM.

Take `O=C1c2sc(-c3nc(Nc4ccc(C5CCNCC5)cc4C4CC4)ncc3C(F)(F)F)cc2S(=O)(=O)CCN1C1CC1` [Example 240, 4-cyclopropyl-7-(2-((2-cyclopropyl-4-(piperidin-4-yl)phenyl)amino)-5-(trifluoromethyl)pyrimidin-4-yl)-3,4-dihydrothieno[2,3-f][1,4]thiazepin-5(2H)-one 1,1-dioxide]: the IC50 was at most 5 nM. As for `O=C1c2sc(-c3nc(Nc4ccc(C5CCN(CC6CC6)CC5)cc4C4CC4)ncc3C(F)(F)F)cc2S(=O)(=O)CCN1C1CC1` [Example 241, 4-cyclopropyl-7-(2-((2-cyclopropyl-4-(1-(cyclopropylmethyl)piperidin-4-yl)phenyl)amino)-5-(trifluoromethyl)pyrimidin-4-yl)-3,4-dihydrothieno[2,3-f][1,4]thiazepin-5(2H)-one 1,1-dioxide], the IC50 is at most 5 nM.
